From patent US20250263376A1, “(E)-N-CINNAMOYLAMINOALKANOLS WITH MELANOGENESIS INHIBITORY ACTIVITY” (Uniwersytet Jagiellonski, priority 2024, published 2025)

Legend:
keratinocytes (HaCaT) = assay: Safety, MTT test in keratinocytes; type: cell-based; details: 48 hours
Experimental: (§1) In order to test the safety of the compounds, both normal human cells were used: keratinocytes (HaCaT), fibroblasts (BJ), primary melanocytes that occur in the skin, as well as human cancer cells: the hepatocarcinoma line HepG2 and the neuroblastoma line SH-SY5Y, which are considered a model for the assessment of hepatocytotoxicity and neurocytotoxicity. The concentrations of the tested compounds in the range of […] were used in the studies. The cell lines used in the research were purchased from the American Type Culture Collection (ATCC) and were cultured in media recommended by the manufacturer with the addition of FBS and antibiotics in an incubator ensuring appropriate culture conditions, i.e. humidity, temperature and CO2 concentration. Cells were seeded into multiwell plates and incubated with the test compounds for 48 hours. After this time, MTT and LDH tests were performed to assess cell viability. The MTT test is based on the ability to transform the substrate: [3-(4,5-dimethyl-2-thiazolyl)-2,5-diphenyl-2H-tetrazolium bromide into a colored product only by living cells. The absorbance at 570 nm, which corresponds to the absorption maximum for the product, is directly proportional to cell viability. The LDH test is based on testing the activity of the enzyme lactate dehydrogenase in the culture medium, which is released from cells as a result of damage to the cell membrane, e.g. as a result of cell death. Triton X-100 was used as a positive control in the test. The determination is colorimetric, the substrate is transformed by the released enzyme into a colored product, an increase in absorbance indicates a larger amount of the released enzyme, and thus confirms greater damage to cell membranes. Tables 7 and 8 present the results obtained, which correspond to the viability of cells incubated with the compounds in relation to the viability of cells constituting a control sample, i.e. incubated with the solvent (DMSO) at the same concentration as in the case of the groups tested in the MTT test or in relation to the results obtained for the Triton X-100 positive control in the LDH test. They indicate that the compounds are safe at the concentrations tested.

fibroblasts (BJ) = assay: Safety, MTT test in fibroblasts; type: cell-based; details: 48 hours
Experimental: as §1

primary melanocytes = assay: Safety, LDH test in primary melanocytes; type: cell-based; details: 48 hours, vs Triton X-100
Experimental: as §1

hepatocarcinoma HepG2 = assay: Safety, LDH test in HepG2; type: cell-based; details: 48 hours, vs Triton X-100
Experimental: as §1

S. typhimurium TA100 = assay: Ames microplate test, TA100; type: cell-based, Salmonella typhimurium
E. coli WP2 = assay: Ames microplate test, E. coli WP2;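 note: bacteria exposed to compound for 90 min at 37 °C in 24-well plates, then transferred with indicator medium to 384-well plates and incubated 48 h before yellow well counting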
Experimental: The study used the Ames microplate test (Ames MPF™ Penta 2 by Xenometrix, Allschwil, Switzerland). Growth medium, exposure medium, indicator medium, positive controls, hepatic microsomal fraction, NADP, glucose-6-phosphate, Salmonella typhimurium and Escherichia coli strains were components of the purchased experimental kit. Bacteria were grown overnight in growth medium. They were then exposed to the test compound at the appropriate concentration in exposure medium without or with the rat microsomal fraction S9 in 24-well plates for 90 min at 37° C. with shaking. Then, indicator medium was added to the wells and pipetted into 384-well plates, which were incubated for 48 hours at 37° C. without shaking. Results were assessed by counting the wells in which the medium turned yellow for each experimental condition.

S. typhimurium TA98 = assay: Ames microplate test, TA98; type: cell-based, Salmonella typhimurium
Experimental: (§2) Bacteria were grown overnight in growth medium.

S. typhimurium TA1537 = assay: Ames microplate test, TA1537; type: cell-based, Salmonella typhimurium
Experimental: as §2

S. typhimurium TA1535 = assay: Ames microplate test, TA1535;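 note: bacteria exposed 90 min at 37 °C in exposure medium, then 48 h in indicator medium in 384-well plates, yellow (revertant) wells counted per condition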
[1] = tested on: reconstructed human epidermis containing melanocytes MelanoDerm MEL-300-B; assay: Melanogenesis inhibition in reconstructed human epidermis containing melanocytes (MelanoDerm); type: cell-based; details: 1.0% in 50% PEG (10 μL), 14 days, MTT
Experimental: Melanogenesis Inhibition Studies in a Model of Reconstructed Human Epidermis Containing Melanocytes (MelanoDerm by Mattek).
The research was carried out on reconstructed human epidermis containing melanocytes MelanoDerm™ MEL-300-B from MatTek (Bratislava, Slovakia). The ratio of keratinocytes to melanocytes in the epidermis used is 10:1. Only medium purchased from the same manufacturer (EPI-100-NMM-113) was used to culture the epidermis during the experiments. Once the epidermis was obtained, it was transferred to 12-well plates containing 5 mL of medium/well. Plates were used to enable proper contact of the lower parts of the inserts with the substrate (so-called hanging-top plate). Solutions of the compounds were prepared immediately before their application. The solutions were applied to the inserts using a positive displacement pipette and then distributed using a sterile glass bulb headed Pasteur pipette. The application was repeated every 48 hours, a total of 7 applications were performed. Before the next application, each insert was rinsed with sterile DPBS and dried with a sterile cotton buds. The application was also accompanied by a change of the medium. […] The epidermis was cultured in an incubator ensuring appropriate humidity, temperature (37° C.) and CO2 concentration (5%).
The experiment was conducted for 14 days. After this time, the inserts were rinsed with DPBS and dried with a cotton swab. For the selected pool of inserts, tissue viability was assessed using the MTT (Thiazolyl Blue Tetrazolium bromide) test, the remaining ones were used to determine the amount of melanin. To assess viability, the inserts were transferred to 24-well plate containing 0.3 mL of DMEM medium with 1 mg/mL MTT and incubated for 3 hours in an incubator. The epidermis was then placed in 2 mL of isopropanol and the resulting formazan was extracted for 2 hours at room temperature. The absorbance of the samples was measured at 570 nm in a microplate reader and correlated with the absorbance of the control by the formula: % Viability=[OD (570 nm) for test compound/OD (570 nm) for control]×100. To determine the amount of melanin, the inserts were incubated in 5% sodium bicarbonate for 30 min, then dried and placed in 0.5 mL of Solvable™ reagent, which caused complete lysis of the epidermis. After heating at 95° C., the absorbance of the samples was measured at 405 nm in a microplate reader. On this basis, the reduction in the amount of melanin was calculated in relation to the control sample. The absorbance results were also correlated with a standard curve for synthetic melanin.

## Cc1ccc(/C=C/C(=O)NCCCCCO)cc1 [H-415/21, (2E)-N-(5-hydroxypentyl)-3-(4-methylphenyl)prop-2-enamide]
Keratinocytes (HaCaT); 100 μM
  MTT, Keratinocytes (HaCaT): 101.11 ± 2.03 % of solvent control
Keratinocytes (HaCaT); 150 μM
  MTT, Keratinocytes (HaCaT): 101.78 ± 2.32 % of solvent control
Keratinocytes (HaCaT); 200 μM
  MTT, Keratinocytes (HaCaT): 100.88 ± 1.40 % of solvent control
Keratinocytes (HaCaT); 250 μM
  MTT, Keratinocytes (HaCaT): 88.54 ± 3.74 % of solvent control
Fibroblasts (BJ); 100 μM
  MTT, Fibroblasts (BJ): 102.12 ± 2.71 % of solvent control
Fibroblasts (BJ); 150 μM
  MTT, Fibroblasts (BJ): 101.92 ± 2.88 % of solvent control
Fibroblasts (BJ); 200 μM
  MTT, Fibroblasts (BJ): 96.13 ± 3.64 % of solvent control
Fibroblasts (BJ); 250 μM
  MTT, Fibroblasts (BJ): 92.86 ± 4.30 % of solvent control
Primary melanocytes; 100 μM
  LDH, Primary melanocytes: 4.22 percentage of positive control
Primary melanocytes; 150 μM
  LDH, Primary melanocytes: 6.01 percentage of positive control
Primary melanocytes; 200 μM
  LDH, Primary melanocytes: 8.34 percentage of positive control
Primary melanocytes; 250 μM
  LDH, Primary melanocytes: 14.94 percentage of positive control
Hepatocarcinoma HepG2; 100 μM
  LDH, Hepatocarcinoma HepG2: 3.90 percentage of positive control
Hepatocarcinoma HepG2; 150 μM
  LDH, Hepatocarcinoma HepG2: 7.24 percentage of positive control
Hepatocarcinoma HepG2; 200 μM
  LDH, Hepatocarcinoma HepG2: 8.92 percentage of positive control
Hepatocarcinoma HepG2; 250 μM
  LDH, Hepatocarcinoma HepG2: 15.47 percentage of positive control
S. typhimurium TA100; 0.5 mM, without S9
  Increase in the number of yellow wells compared to the reference level, TA100: 0.92
S. typhimurium TA100; 1.0 mM, without S9
  Increase in the number of yellow wells compared to the reference level, TA100: 0.58
S. typhimurium TA100; 2.0 mM, without S9
  Increase in the number of yellow wells compared to the reference level, TA100: 0.75
E. coli WP2; 0.5 mM, without S9
  Increase in the number of yellow wells compared to the reference level, E. coli WP2: 0.64
E. coli WP2; 1.0 mM, without S9
  Increase in the number of yellow wells compared to the reference level, E. coli WP2: 0.40
E. coli WP2; 2.0 mM, without S9
  Increase in the number of yellow wells compared to the reference level, E. coli WP2: 0.95
S. typhimurium TA98; 0.5 mM, without S9
  Increase in the number of yellow wells compared to the reference level, TA98: 0.47
S. typhimurium TA98; 1.0 mM, without S9
  Increase in the number of yellow wells compared to the reference level, TA98: 0.24
S. typhimurium TA98; 2.0 mM, without S9
  Increase in the number of yellow wells compared to the reference level, TA98: 0.35
S. typhimurium TA1537; 0.5 mM, without S9
  Increase in the number of yellow wells compared to the reference level, TA1537: 0.33
S. typhimurium TA1537; 1.0 mM, without S9
  Increase in the number of yellow wells compared to the reference level, TA1537: 0.33
S. typhimurium TA1537; 2.0 mM, without S9
  Increase in the number of yellow wells compared to the reference level, TA1537: 0.00
S. typhimurium TA1535; 0.5 mM, without S9
  Increase in the number of yellow wells compared to the reference level, TA1535: 0.21
S. typhimurium TA1535; 1.0 mM, without S9
  Increase in the number of yellow wells compared to the reference level, TA1535: 0.41
S. typhimurium TA1535; 2.0 mM, without S9
  Increase in the number of yellow wells compared to the reference level, TA1535: 0.10

## O=C(/C=C/c1ccccc1)NCCCCCCO [H-425/21, (E)-N-(6-hydroxyhexyl)cinnamic acid amide]
S. typhimurium TA100; 0.5 mM, + S9
  Increase in the number of yellow wells compared to the reference level, TA100: 0.50
S. typhimurium TA100; 0.5 mM, without S9
  Increase in the number of yellow wells compared to the reference level, TA100: 0.73
S. typhimurium TA100; 1.0 mM, + S9
  Increase in the number of yellow wells compared to the reference level, TA100: 0.69
S. typhimurium TA100; 1.0 mM, without S9
  Increase in the number of yellow wells compared to the reference level, TA100: 0.80
S. typhimurium TA100; 2.0 mM, + S9
  Increase in the number of yellow wells compared to the reference level, TA100: 0.58
S. typhimurium TA100; 2.0 mM, without S9
  Increase in the number of yellow wells compared to the reference level, TA100: 0.73
E. coli WP2; 0.5 mM, + S9
  Increase in the number of yellow wells compared to the reference level, E. coli WP2: 0.75
E. coli WP2; 0.5 mM, without S9
  Increase in the number of yellow wells compared to the reference level, E. coli WP2: 0.17
E. coli WP2; 1.0 mM, + S9
  Increase in the number of yellow wells compared to the reference level, E. coli WP2: 0.83
E. coli WP2; 1.0 mM, without S9
  Increase in the number of yellow wells compared to the reference level, E. coli WP2: 0.67
E. coli WP2; 2.0 mM, + S9
  Increase in the number of yellow wells compared to the reference level, E. coli WP2: 0.75
E. coli WP2; 2.0 mM, without S9
  Increase in the number of yellow wells compared to the reference level, E. coli WP2: 1.00
S. typhimurium TA98; 0.5 mM, + S9
  Increase in the number of yellow wells compared to the reference level, TA98: 0.42
S. typhimurium TA98; 0.5 mM, without S9
  Increase in the number of yellow wells compared to the reference level, TA98: 0.27
S. typhimurium TA98; 1.0 mM, + S9
  Increase in the number of yellow wells compared to the reference level, TA98: 0.42
S. typhimurium TA98; 1.0 mM, without S9
  Increase in the number of yellow wells compared to the reference level, TA98: 0.54
S. typhimurium TA98; 2.0 mM, + S9
  Increase in the number of yellow wells compared to the reference level, TA98: 0.63
S. typhimurium TA98; 2.0 mM, without S9
  Increase in the number of yellow wells compared to the reference level, TA98: 0.80
S. typhimurium TA1537; 0.5 mM, + S9
  Increase in the number of yellow wells compared to the reference level, TA1537: 1.33
S. typhimurium TA1537; 0.5 mM, without S9
  Increase in the number of yellow wells compared to the reference level, TA1537: 0.09
S. typhimurium TA1537; 1.0 mM, + S9
  Increase in the number of yellow wells compared to the reference level, TA1537: 0.00
S. typhimurium TA1537; 1.0 mM, without S9
  Increase in the number of yellow wells compared to the reference level, TA1537: 0.18
S. typhimurium TA1537; 2.0 mM, + S9
  Increase in the number of yellow wells compared to the reference level, TA1537: 1.00
S. typhimurium TA1537; 2.0 mM, without S9
  Increase in the number of yellow wells compared to the reference level, TA1537: 0.82
[1]
  Viability [% control, mean ± SD]: 87.16 ± 6.30 % control
S. typhimurium TA1535; 0.5 mM, + S9
  Increase in the number of yellow wells compared to the reference level, TA1535: 0.54
S. typhimurium TA1535; 0.5 mM, without S9
  Increase in the number of yellow wells compared to the reference level, TA1535: 1.04
S. typhimurium TA1535; 1.0 mM, + S9
  Increase in the number of yellow wells compared to the reference level, TA1535: 0.40
S. typhimurium TA1535; 1.0 mM, without S9
  Increase in the number of yellow wells compared to the reference level, TA1535: 0.59
S. typhimurium TA1535; 2.0 mM, + S9
  Increase in the number of yellow wells compared to the reference level, TA1535: 0.94
S. typhimurium TA1535; 2.0 mM, without S9
  Increase in the number of yellow wells compared to the reference level, TA1535: 0.45
